In ChEMBL document CHEMBL4665904, “Novel APOL1 Inhibitors for Treating Kidney Diseases” (ACS Med Chem Lett, 2020):

Key:
Trypanosoma brucei = assay: Trypanocidal activity against bloodstream forms of Trypanosoma brucei using recombinant APOL1 assessed as cell viability incubated for 16 hrs by cell lysis based alamar blue assay; assay type: functional, organism-based
Apolipoprotein L1 = target: T1, Apolipoprotein L1 (Homo sapiens, UniProt O14791); assay: Inhibition of APOL1 (unknown origin) in HEK293 cells assessed as thallium influx incubated for 30 mins by FLIPR based thallium influx assay; assay type: cell-based
T1 sequence (O14791 whole entry): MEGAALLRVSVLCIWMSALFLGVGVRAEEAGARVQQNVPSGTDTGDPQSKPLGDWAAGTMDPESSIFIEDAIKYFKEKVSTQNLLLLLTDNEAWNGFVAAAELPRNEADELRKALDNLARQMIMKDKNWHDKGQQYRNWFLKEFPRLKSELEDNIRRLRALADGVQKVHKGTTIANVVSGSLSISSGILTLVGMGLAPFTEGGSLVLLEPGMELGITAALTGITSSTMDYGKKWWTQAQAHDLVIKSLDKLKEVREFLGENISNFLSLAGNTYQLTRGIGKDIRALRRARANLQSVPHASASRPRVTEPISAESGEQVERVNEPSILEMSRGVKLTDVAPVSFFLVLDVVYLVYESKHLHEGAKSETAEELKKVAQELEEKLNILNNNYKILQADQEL

Structure (SMILES)	IC50 (Apolipoprotein L1)	IC50 (Trypanosoma brucei)
N#Cc1cc(F)cc2c(CCC(=O)N[C@@H]3C(=O)NC[C@H]3O)c(-c3ccc(F)cc3)[nH]c12	< 0.25 µM	< 0.25 µM
O=C(CCc1c(-c2ccccc2)[nH]c2c(F)cccc12)N[C@@H]1C(=O)NC[C@H]1O	< 0.25 µM	< 0.25 µM
N#Cc1ccc(-c2[nH]c3c(F)cc(F)cc3c2CCC(=O)N[C@H]2CCNC2=O)cc1	< 0.25 µM	< 0.25 µM

Further lines, with some results ahead:

IC50 (Apolipoprotein L1)	Structure (SMILES)	IC50 (Trypanosoma brucei)
< 0.25 µM	O=C(CCc1c(-c2ccc(F)cc2)[nH]c2c(F)cc(F)cc12)N[C@@H]1C(=O)NC[C@@H]1O	< 0.25 µM
< 0.25 µM	O=C(CCc1c(-c2ccccc2)[nH]c2cc(F)c(F)cc12)N[C@@H]1C(=O)NC[C@H]1O	< 0.25 µM
< 0.25 µM	COc1ccc(-c2[nH]c3ccccc3c2CCC(=O)N[C@@H]2C(=O)NC[C@H]2O)cc1	< 0.25 µM
